# According to ChEMBL document CHEMBL4130415, “Discovery of new MD2-targeted anti-inflammatory compounds for the treatment of sepsis and acute lung injury” (Eur J Med Chem, 2017):
# Calls of active or inactive are those of the source. No cut-off for these calls is given here.
# Legend:
# Peritoneal macrophage [1] = assay: Antiinflammatory activity in ICR mouse primary peritoneal macrophages assessed as inhibition of LPS-induced TNF-alpha production at 10 uM pretreated for 2 hrs followed by LPS challenge measured after 22 hrs by ELISA relative to control; format: functional
# Peritoneal macrophage [2] = assay: Antiinflammatory activity in ICR mouse primary peritoneal macrophages assessed as inhibition of LPS-induced IL-6 production at 10 uM pretreated for 2 hrs followed by LPS challenge measured after 22 hrs by ELISA relative to control; format: functional
# Mus musculus [3] = assay: Antiinflammatory activity in C57BL/6 mouse assessed as reduction in LPS-induced wet to dry lung edema ratio at 10 mg/kg, iv pretreated for 15 mins followed by LPS challenge measured after 6 hrs; format: functional, organism-based
# Mus musculus [4] = assay: Antiinflammatory activity in C57BL/6 mouse assessed as reduction in LPS-induced total cell numbers in bronchoalveolar lavage fluid at 10 mg/kg, iv pretreated for 15 mins followed by LPS challenge measured after 6 hrs by flow cytometric analysis; format: functional, organism-based
# Peritoneal macrophage [5] = assay: Antiinflammatory activity in ICR mouse primary peritoneal macrophages assessed as inhibition of LPS-induced TNF-alpha production pretreated for 2 hrs followed by LPS challenge measured after 22 hrs by ELISA; format: functional, cell-based
# Mus musculus [6] = assay: Antiinflammatory activity in C57BL/6 mouse assessed as reduction in LPS-induced IL-1beta mRNA level in bronchoalveolar lavage fluid at 10 mg/kg, iv pretreated for 15 mins followed by LPS challenge measured after 6 hrs by qPCR analysis; format: functional, organism-based
# Mus musculus [7] = assay: Antiinflammatory activity in C57BL/6 mouse assessed as reduction in LPS-induced IL-6 mRNA level in bronchoalveolar lavage fluid at 10 mg/kg, iv pretreated for 15 mins followed by LPS challenge measured after 6 hrs by qPCR analysis; format: functional, organism-based
# Peritoneal macrophage [8] = assay: Antiinflammatory activity in ICR mouse primary peritoneal macrophages assessed as inhibition of LPS-induced IL-6 production pretreated for 2 hrs followed by LPS challenge measured after 22 hrs hrs by ELISA; format: functional, cell-based
# Mus musculus [9] = assay: Antiinflammatory activity in C57BL/6 mouse assessed as reduction in LPS-induced inflammatory cell infiltration in lung at 10 mg/kg, iv pretreated for 15 mins followed by LPS challenge measured after 6 hrs by hematoxylin and eosin staining-based light microscopic analysis; format: functional, organism-based
# Mus musculus [10] = assay: Antiinflammatory activity in LPS-induced C57BL/6 mouse assessed as mouse survival at 10 mg/kg, iv pretreated for 15 mins followed by LPS challenge measured after 7 days; format: functional, organism-based
# Mus musculus [11] = assay: Antiinflammatory activity in C57BL/6 mouse assessed as reduction in LPS-induced interalveolar septal thickening in lung at 10 mg/kg, iv pretreated for 15 mins followed by LPS challenge measured after 6 hrs by hematoxylin and eosin staining-based light microscopic analysis; format: functional, organism-based
# Mus musculus [12] = assay: Antiinflammatory activity in C57BL/6 mouse assessed as reduction in LPS-induced total protein level in bronchoalveolar lavage fluid at 10 mg/kg, iv pretreated for 15 mins followed by LPS challenge measured after 6 hrs; format: functional, organism-based
# Mus musculus [13] = assay: Antiinflammatory activity in C57BL/6 mouse assessed as reduction in LPS-induced TNF-alpha mRNA level in bronchoalveolar lavage fluid at 10 mg/kg, iv pretreated for 15 mins followed by LPS challenge measured after 6 hrs by qPCR analysis; format: functional, organism-based
# Mus musculus [14] = assay: Antiinflammatory activity in C57BL/6 mouse assessed as reduction in LPS-induced interstitial edema in lung at 10 mg/kg, iv pretreated for 15 mins followed by LPS challenge measured after 6 hrs by hematoxylin and eosin staining-based light microscopic analysis; format: functional, organism-based
# Peritoneal macrophage [15] = assay: Antiinflammatory activity in ICR mouse primary peritoneal macrophages assessed as inhibition of Pam3CK-induced TNF-alpha production at 10 uM pretreated for 2 hrs followed by Pam3CK challenge measured after 12 hrs by ELISA; format: functional, cell-based
# Mus musculus [16] = assay: Antiinflammatory activity in LPS-induced C57BL/6 mouse assessed as increase in immunoreactivity to CD68 in lung at 10 mg/kg, iv pretreated for 15 mins followed by LPS challenge measured after 6 hrs by immunohistochemical analysis; format: functional, organism-based
IC50 (Peritoneal macrophage [5]),IC50 (Peritoneal macrophage [8]),Compound,inhibition (Peritoneal macrophage [1]),inhibition (Peritoneal macrophage [2]),inhibition (Peritoneal macrophage [5]),inhibition (Peritoneal macrophage [8]),inhibition (Peritoneal macrophage [15]),also measured
–,–,COc1cc(OC)c(/C=C/C(=O)/C=C/c2ccc(OC)c(OC)c2)c(OC)c1,inactive,inactive,–,–,–,–
–,–,COc1cc(OC)c(/C=C/C(=O)/C=C/c2cccc(OC)c2OC)c(OC)c1,inactive,inactive,–,–,–,–
4.73 µM,4.18 µM,COc1ccccc1/C=C/C(=O)/C=C/c1ccccc1Br,–,–,Dose-dependent effect,Dose-dependent effect,inactive,Activity (Mus musculus [3]): Active; Activity (Mus musculus [4]): Active; Activity (Mus musculus [6]): Active; Activity (Mus musculus [7]): Active; Activity (Mus musculus [9]): Active; Activity (Mus musculus [10]): Active; Activity (Mus musculus [11]): Active; inhibition at 10 µM (Peritoneal macrophage [1]): 97.6%; Activity (Mus musculus [12]): Active; inhibition at 10 µM (Peritoneal macrophage [2]): 99.6%; Activity (Mus musculus [13]): Active; Activity (Mus musculus [14]): Active; Activity (Mus musculus [16]): Active
2.96 µM,3.62 µM,COc1cccc(/C=C/C(=O)/C=C/c2ccc(O)c(Br)c2)c1OC,–,–,Dose-dependent effect,Dose-dependent effect,inactive,Activity (Mus musculus [10]): Active
–,–,COc1cc(O)c(CC=C(C)C)c(O)c1C(=O)/C=C/c1ccc(O)cc1,inactive,inactive,–,–,–,–
–,–,COc1ccc(/C=C2\CCC/C(=C\c3cccc(OC)c3OC)C2=O)c(F)c1,inactive,inactive,–,–,–,–
3.71 µM,4.13 µM,COc1ccccc1/C=C/C(=O)/C=C/c1ccc(O)c(Br)c1,–,–,Dose-dependent effect,Dose-dependent effect,inactive,–
